PubChem BioAssay AID1845195 (Molecular Pharmacology Branch, DTP, NCI, 2023)

Test system: 156681-154-R-J1 tumor spheroid viability
Assay: Anticancer human tumor 156681-154-R-J1 patient-derived melanoma cell line growth inhibition
Conditions: spheroids with HUVEC and MSC; for IC50: curve of first compound; for viability, T/C: stronger effect = lower value
Excerpt: Multicellular complex tumor spheroid response to DNA repair inhibitors in combination with DNA-damaging drugs
This study explores the anticancer activities of DNA-damaging drugs and inhibitors of DNA damage repair, both as single agents and in combinations. Complex tumor spheroids comprised of malignant cells, endothelial cells and mesenchymal stem cells served as an in vitro model for human solid tumors. This model system incorporates physiologically relevant features and patient-derived or established malignant cell lines with clinically relevant genetic alterations from many tumor types. Twenty-six patient-derived or established malignant cell lines were evaluated representing sarcoma, melanoma, small cell lung cancer (SCLC), non-small cell lung cancer (NSCLC), as well as bladder, ovarian and pancreatic cancers. The concentration ranges selected for each drug and investigational agent were based upon clinically achievable concentrations if the clinical Cmax of the agent was known.
Compounds. The drugs and compounds olaparib (NSC753686), talazoparib (NSC767125), berzosertib (NSC777718), elimusertib (NSC800525), nedisertib (NSC802822), VX-984 (NSC792969), AZD-1390 (NSC803789), temozolomide (NSC362856), topotecan (NSC609699), trabectedin (NSC813783), staurosporine (NSC755774), and gemcitabine (NSC613327) were obtained from the National Cancer Institute (NCI) Developmental Therapeutics Program Chemical Repository. The FDA-approved anticancer drug set is available from the Developmental Therapeutics Program at https://dtp.cancer.gov/organization/dscb/obtaining/available_plates.htm. […] The stock solutions were prepared in dimethyl sulfoxide (DMSO, Sigma-Aldrich, St. Louis, MO, cat. D2650) at 400-fold the tested concentration and stored at -70 degrees C. Prior to their use, the stock solutions were diluted in fresh medium and the final DMSO concentration in the assay was 0.25% (v/v). All drugs and investigational agents were tested over a range starting from a high concentration at or near the clinical Cmax and decreasing in half-log increments. If the clinical Cmax for an agent had not been determined, the highest concentration tested was 10 microM.
Cell Lines. The patient-derived cancer cell (PDC) lines: 156681-154-R-J1-PDC, 283228-195-R-J1-PDC, 287954-098-R-J1-PDC, 292921-168-R-J2-PDC, 349418-098-R-PDC, 425362-245-T-J1-PDC, 556581-035-R-J1-PDC, and BL0293-F563-PDC were received from the NCI Patient-Derived Models Repository (PDMR, https://pdmr.cancer.gov). The established cell lines HS-SY-2 (RRID:CVCL_8719), MPNST, and SYO-1 (RRID:CVCL_7146) were obtained from the Sloan Kettering Institute. The alveolar soft parts sarcoma cell line ASPS-1 (RRID:CVCL_S738) was established at the NCI and grown from internal seed stocks. The following established cell lines were purchased from the American Type Culture Collection (ATCC, Manassas, VA): G-401 (ATCC, cat. CRL-1441, RRID:CVCL_0270), SW982 (ATCC, cat. HTB-93, RRID:CVCL_1734), VA-ES-BJ (ATCC, cat. CRL-2138, RRID:CVCL_1785), NCI-H719 (ATCC, cat. CRL-5837, RRID:CVCL_1582), NCI-H196 (ATCC, cat. CRL-5823, RRID:CVCL_1509), NCI-H841 (ATCC, cat. CRL-5845, RRID:CVCL_1595), NCI-H1618 (ATCC, cat. CRL-5879, RRID:CVCL_1480), NCI-H1876 (ATCC, cat. CRL-5902, RRID:CVCL_1503), DMS 114 (ATCC, cat. CRL-2066; RRID:CVCL_1174), NCI-H211 (ATCC, cat. CRL-5824; RRID:CVCL_1529), and SW 1271 (ATCC, cat. CRL-2177, RRID:CVCL_1716). The small cell lung cancer cell line COR-L88 was purchased from Sigma-Aldrich (cat. 92031917-1VL, RRID:CVCL_1141). The non-small cell lung cancer cell lines NCI-H226 (RRID:CVCL_1544) and NCI-H322M (RRID:CVCL_1557) were established at the NCI and grown from internal seed stocks. Pooled donor human umbilical vein endothelial cells (HUVEC, Lonza, cat. CC-2519) and human mesenchymal stem cells (hMSC, Lonza, cat. PT-2501) were purchased from Lonza (Walkersville, MD).
Cell Culture. All cells were maintained in an incubator at 37 degrees C and 5% CO2 with 95% humidity. […]

[1] = second compound 0.003 µM, first compound 0.0949 µM
[2] = second compound 0.003 µM, first compound 0.3 µM
[3] = second compound 0.003 µM, first compound 0.949 µM
[4] = second compound 0.003 µM, first compound 3 µM
[5] = second compound 0.00949 µM, first compound 0.0949 µM
[6] = second compound 0.00949 µM, first compound 0.3 µM
[7] = second compound 0.00949 µM, first compound 0.949 µM
[8] = second compound 0.00949 µM, first compound 3 µM
[9] = second compound 0.03 µM, first compound 0.0949 µM
[10] = second compound 0.03 µM, first compound 0.3 µM
[11] = second compound 0.03 µM, first compound 0.949 µM
[12] = second compound 0.03 µM, first compound 3 µM
[13] = second compound 0.0949 µM, first compound 0.0949 µM
[14] = second compound 0.0949 µM, first compound 0.3 µM
[15] = second compound 0.0949 µM, first compound 0.949 µM
[16] = second compound 0.0949 µM, first compound 3 µM
[17] = second compound 0.3 µM, first compound 0.0949 µM
[18] = second compound 0.3 µM, first compound 0.3 µM
[19] = second compound 0.3 µM, first compound 0.949 µM
[20] = second compound 0.3 µM, first compound 3 µM
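Further: spheroids exposed to compounds for 7 days before readout.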
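Wherever viability, T/C is given: percent of vehicle control viability where 100% = DMSO-treated spheroids.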

Row | Compound | IC50 (second compound 0.003 µM) | IC50 (second compound 0.00949 µM) | IC50 (second compound 0.03 µM) | IC50 (second compound 0.0949 µM) | IC50 (second compound 0.3 µM) | viability, T/C [1] | viability, T/C [2] | viability, T/C [3] | viability, T/C [4] | viability, T/C [5] | viability, T/C [6] | viability, T/C [7] | viability, T/C [8] | viability, T/C [9] | viability, T/C [10] | viability, T/C [11] | viability, T/C [12] | viability, T/C [13] | viability, T/C [14] | viability, T/C [15] | other results
1 | Cn1ncnc1[C@H]1c2n[nH]c(=O)c3cc(F)cc(c23)N[C@@H]1c1ccc(F)cc1 + CC[C@@]1(O)C(=O)OCc2c1cc1n(c2=O)Cc2cc3c(CN(C)C)c(O)ccc3nc2-1 | 871 nM | 207 nM | < 9.49 nM | < 9.49 nM | < 9.49 nM | 82.5% | 77.3% | 47.8% | 8.02% | 48.8% | 50% | 21.2% | 9.62% | 22.1% | 18.2% | 15.2% | 6.77% | 32.7% | 31.2% | 24.9% | viability, T/C (second compound 0.003 µM, first compound 0.00949 µM): 87.1%; viability, T/C (second compound 0.003 µM, first compound 0.03 µM): 102%; viability, T/C (second compound 0.00949 µM, first compound 0.00949 µM): 58.8%; viability, T/C (second compound 0.00949 µM, first compound 0.03 µM): 65.9%; viability, T/C (second compound 0.03 µM, first compound 0.00949 µM): 33.5%; viability, T/C (second compound 0.03 µM, first compound 0.03 µM): 28.7%; viability, T/C (second compound 0.0949 µM, first compound 0.00949 µM): 29.5%; viability, T/C (second compound 0.0949 µM, first compound 0.03 µM): 33.4%; viability, T/C [16]: 10.6%; viability, T/C (second compound 0.3 µM, first compound 0.00949 µM): 41.8%; viability, T/C (second compound 0.3 µM, first compound 0.03 µM): 43.8%; viability, T/C [17]: 47.8%; viability, T/C [18]: 43.3%; viability, T/C [19]: 44%; viability, T/C [20]: 24.6%
2 | O=C(c1cc(Cc2n[nH]c(=O)c3ccccc23)ccc1F)N1CCN(C(=O)C2CC2)CC1 + CC[C@@]1(O)C(=O)OCc2c1cc1n(c2=O)Cc2cc3c(CN(C)C)c(O)ccc3nc2-1 | 21300 nM | 14800 nM | < 94.9 nM | < 94.9 nM | < 94.9 nM | 103% | 80.6% | 74.2% | 74.5% | 59.1% | 64.2% | 76.7% | 62.6% | 38.4% | 41.1% | 36.7% | 29.8% | 33.5% | 35.5% | 33% | viability, T/C (second compound 0.003 µM, first compound 9.49 µM): 63%; viability, T/C (second compound 0.003 µM, first compound 30 µM): 42.1%; viability, T/C (second compound 0.00949 µM, first compound 9.49 µM): 62%; viability, T/C (second compound 0.00949 µM, first compound 30 µM): 31.2%; viability, T/C (second compound 0.03 µM, first compound 9.49 µM): 15.3%; viability, T/C (second compound 0.03 µM, first compound 30 µM): 15.5%; viability, T/C [16]: 25.7%; viability, T/C (second compound 0.0949 µM, first compound 9.49 µM): 21.7%; viability, T/C (second compound 0.0949 µM, first compound 30 µM): 9.48%; viability, T/C [17]: 46%; viability, T/C [18]: 46.4%; viability, T/C [19]: 46.6%; viability, T/C [20]: 46.2%; viability, T/C (second compound 0.3 µM, first compound 9.49 µM): 42.3%; viability, T/C (second compound 0.3 µM, first compound 30 µM): 13.3%
